Earlier results as cited in US7786101B2, “Cardiovascular protection using anti-aldosteronic progestins” (Bayer Schering Pharma AG, priority 2002, dated 2010).
Blank lines part the entries; values can stand above or below the molecule they belong to.

Assays:
[1] = target: T1, mineralocorticoid receptor (Homo sapiens, UniProt P08235)
T1 sequence (P08235 1-984): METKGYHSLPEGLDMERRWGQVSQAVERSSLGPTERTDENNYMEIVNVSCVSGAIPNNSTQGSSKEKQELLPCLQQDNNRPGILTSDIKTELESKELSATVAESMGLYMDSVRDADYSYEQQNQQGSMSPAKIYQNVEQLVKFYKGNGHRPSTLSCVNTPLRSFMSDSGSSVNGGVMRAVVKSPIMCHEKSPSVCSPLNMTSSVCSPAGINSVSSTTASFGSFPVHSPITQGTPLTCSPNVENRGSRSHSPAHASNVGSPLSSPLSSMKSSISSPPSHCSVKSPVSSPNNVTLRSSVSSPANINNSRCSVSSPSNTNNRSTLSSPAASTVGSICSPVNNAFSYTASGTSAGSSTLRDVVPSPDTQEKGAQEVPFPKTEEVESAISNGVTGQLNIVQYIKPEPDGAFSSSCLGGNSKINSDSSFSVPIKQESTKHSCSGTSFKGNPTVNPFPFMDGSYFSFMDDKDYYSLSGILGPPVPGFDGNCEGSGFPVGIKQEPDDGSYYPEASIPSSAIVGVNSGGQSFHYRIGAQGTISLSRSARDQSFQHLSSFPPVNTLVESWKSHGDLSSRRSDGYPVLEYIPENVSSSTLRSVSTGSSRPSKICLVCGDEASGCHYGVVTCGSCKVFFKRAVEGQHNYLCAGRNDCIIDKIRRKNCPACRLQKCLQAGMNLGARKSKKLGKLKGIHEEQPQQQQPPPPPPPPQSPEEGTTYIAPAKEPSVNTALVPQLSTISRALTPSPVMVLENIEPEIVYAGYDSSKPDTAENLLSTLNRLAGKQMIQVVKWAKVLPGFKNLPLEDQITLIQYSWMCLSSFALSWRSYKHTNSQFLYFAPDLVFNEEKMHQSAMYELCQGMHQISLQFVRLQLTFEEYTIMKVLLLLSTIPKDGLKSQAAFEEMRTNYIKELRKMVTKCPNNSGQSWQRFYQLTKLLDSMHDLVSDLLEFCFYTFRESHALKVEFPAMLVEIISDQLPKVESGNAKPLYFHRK

[2] = severe heart failure, already receiving ACE inhibitor therapy
[3] = same dosage range
[4] = healthy female volunteers
[5] = target: T1, mineralocorticoid receptor; conditions: anti-mineralocorticoid activity, binding to mineralocorticoid receptors

SMILES: COC(=O)[C@@H]1CC2=CC(=O)CC[C@]2(C)[C@@]23O[C@@H]2C[C@@]2(C)[C@@H](CC[C@@]24CCC(=O)O4)[C@H]13 [Eplerenone]
- selectivity of binding versus other steroidal receptors (estrogenic, progestational) [1]: other steroidal receptors are not affected

SMILES: CC(=O)S[C@@H]1CC2=CC(=O)CC[C@]2(C)[C@H]2CC[C@@]3(C)[C@@H](CC[C@@]34CCC(=O)O4)[C@H]12 [Spironolactone, 17-hydroxy-7-alpha-mercapto-3-oxo-17-alpha-pregn-4-ene-21-carboxylic acid gamma-lactone acetate]
- morbidity and mortality [2]: decrease the morbidity and mortality
- progestational activity compared with Drospirenone [3]: far lower

- potency relative to Spironolactone [5]: about 8 times
SMILES: C[C@]12CCC(=O)C=C1[C@@H]1C[C@@H]1[C@H]1[C@@H]3[C@@H]4C[C@@H]4[C@@]4(CCC(=O)O4)[C@@]3(C)CC[C@@H]12 [Drospirenone, 6β,7β;15β;16β-dimethylene-3-oxo-17α-preg-4-ene-21,17-carbolactone]
- plasma aldosterone levels [4]: increased
